Patent US11987588B2, “Modulators of the beta-3 adrenergic receptor useful for the treatment or prevention of heart failure and disorders related thereto” (Arena Pharmaceuticals, Inc., priority 2017, dated 2024)
pIC50: −log10 of the molar value.

What follows are compounds tested against Beta-3 Adrenergic Receptor (Homo sapiens (Human), UniProt P13945) (assay: Homogeneous Time-Resolved Fluorescence (HTRF) cAMP antagonist assay, IC50 determination). Conditions: CHO-K1 cells stably expressing recombinant receptor, isoproterenol at EC90.
Sequence of Beta-3 Adrenergic Receptor (P13945 whole entry, species assumed): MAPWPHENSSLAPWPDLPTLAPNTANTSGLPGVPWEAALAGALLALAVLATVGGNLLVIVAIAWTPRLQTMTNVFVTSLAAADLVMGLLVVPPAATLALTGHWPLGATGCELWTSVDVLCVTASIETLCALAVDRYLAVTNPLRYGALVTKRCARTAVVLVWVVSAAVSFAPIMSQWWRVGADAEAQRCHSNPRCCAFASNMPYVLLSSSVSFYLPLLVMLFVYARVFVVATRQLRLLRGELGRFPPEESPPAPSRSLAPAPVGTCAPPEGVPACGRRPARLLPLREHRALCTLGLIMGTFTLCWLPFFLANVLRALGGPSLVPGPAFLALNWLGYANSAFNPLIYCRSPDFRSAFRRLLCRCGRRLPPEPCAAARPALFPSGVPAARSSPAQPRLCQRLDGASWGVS
Type: cell-based
Description: HTRF cAMP assays were performed according to manufacturer's instructions (Cisbio, cAMP Dynamic 2 Assay Kit; #62AM4PEJ). CHO-K1 cells stably expressing recombinant receptor were harvested and suspended in warm PBS to make a 300,000 cells/mL stock. This cell suspension was dispensed into 384 well assay plates (PerkinElmer ProxiPlate #6008280) at 5 μL per well (1500 cells/well) along with a cAMP standard curve.
Compounds were dissolved and serially diluted (5-fold) in DMSO to generate a 10-point dose response stock. The stock was then diluted 100-fold in assay buffer (PBS containing 1 mM IBMX) before a volume of 2.5 μL was added to the cells (the final, top concentration of compound in the dose-response is typically 10 or 100 μM). After a brief incubation, 2.5 μL of isoproterenol stock, prepared at a concentration 4 times its EC90 at the receptor of interest, was added to the wells. The EC90 for isoproterenol, a beta-adrenergic agonist, was determined in separate experiments using standard methods to measure agonist potencies.
Following a 1-hour incubation at room temperature, 5 μL of cAMP-D2 Reagent diluted in Lysis Buffer was added to each well followed by 5 μL of Cryptate Reagent. Plates were further incubated at room temperature for 1 hour prior to reading. Time resolved fluorescence measurements were collected on a suitable, HTRF-capable plate reader.
Counts from the plate reader were fit to the cAMP standard curve on the assay plate in order to determine cAMP concentrations in each well, and these values were used to construct dose-response curves to obtain IC50 values.
Compound `O=S(=O)(NC1CC1)c1cccc(OC[C@@H](O)CNC2COC3(CCN(S(=O)(=O)c4ccc5ccccc5c4)CC3)C2)c1` (stereo partly drawn) [Compound 74, N-cyclopropyl-3-((2S)-2-hydroxy-3-(8-(naphthalen-2-ylsulfonyl)-1-oxa-8-azaspiro[4.5]decan-3-ylamino)propoxy)benzenesulfonamide] has a pIC50 of 6.63.
For `CCC(CC)CNS(=O)(=O)c1cccc(OC[C@@H](O)CNC2COC3(CCN(S(=O)(=O)c4ccc5ccccc5c4)CC3)C2)c1` (stereo partly drawn) [Compound 97, N-(2-ethylbutyl)-3-((2S)-2-hydroxy-3-(8-(naphthalen-2-ylsulfonyl)-1-oxa-8-azaspiro[4.5]decan-3-ylamino)propoxy)benzenesulfonamide], the pIC50 was 6.90.
For `CNS(=O)(=O)c1cccc(OC[C@@H](O)CNC2COC3(CCN(S(=O)(=O)c4ccc(C(F)(F)F)cc4)CC3)C2)c1` (stereo partly drawn) [Compound 45, 3-((2S)-2-hydroxy-3-(8-(4-(trifluoromethyl)phenylsulfonyl)-1-oxa-8-azaspiro[4.5]decan-3-ylamino)propoxy)-N-methylbenzenesulfonamide], the pIC50 was 7.71.
`CNS(=O)(=O)c1cccc(OC[C@@H](O)CN[C@@H]2COC3(CCN(S(=O)(=O)c4cccc(-c5ccc(CNCC(C)C)cc5)c4)CC3)C2)c1` [Compound 360, 3-((S)-2-hydroxy-3-((S)-8-(4′-((isobutylamino)methyl)biphenyl-3-ylsulfonyl)-1-oxa-8-azaspiro[4.5]decan-3-ylamino)propoxy)-N-methylbenzenesulfonamide] showed a pIC50 of 7.69.
For `CNS(=O)(=O)c1cccc(OC[C@@H](O)CNC2COC3(CCN(S(=O)(=O)c4cc(Br)ccc4Cl)CC3)C2)c1` (stereo partly drawn) [Compound 259, 3-((2S)-3-(8-(5-bromo-2-chlorophenylsulfonyl)-1-oxa-8-azaspiro[4.5]decan-3-ylamino)-2-hydroxypropoxy)-N-methylbenzenesulfonamide], the pIC50 was 7.64.
Compound `CNS(=O)(=O)c1cccc(OC[C@@H](O)CN[C@H]2COC3(CCN(S(=O)(=O)c4cnc5c(c4)CCCC5)CC3)C2)c1` [Compound 479, 3-((S)-2-hydroxy-3-((R)-8-(5,6,7,8-tetrahydroquinolin-3-ylsulfonyl)-1-oxa-8-azaspiro[4.5]decan-3-ylamino)propoxy)-N-methylbenzenesulfonamide] has a pIC50 of 7.49.
`CNS(=O)(=O)c1cccc(OC[C@@H](O)CNC2COC3(CCN(S(=O)(=O)c4ccc5nc[nH]c5c4)CC3)C2)c1` (stereo partly drawn) [Compound 146, 3-((2S)-3-(8-(1H-benzo[d]imidazol-6-ylsulfonyl)-1-oxa-8-azaspiro[4.5]decan-3-ylamino)-2-hydroxypropoxy)-N-methylbenzenesulfonamide] gave a pIC50 of 7.44.
Work on `CNS(=O)(=O)c1cccc(OC[C@@H](O)CN[C@H]2COC3(CCN(S(=O)(=O)c4cnc5[nH]c(C)c(Cl)c5c4)CC3)C2)c1` [Compound 517, 3-((S)-3-((R)-8-(3-chloro-2-methyl-1H-pyrrolo[2,3-b]pyridin-5-ylsulfonyl)-1-oxa-8-azaspiro[4.5]decan-3-ylamino)-2-hydroxypropoxy)-N-methylbenzenesulfonamide] yielded a pIC50 of 8.11.
`CNS(=O)(=O)c1cccc(OC[C@@H](O)CNC2COC3(CCN(S(=O)(=O)c4ccccc4Cl)CC3)C2)c1` (stereo partly drawn) [Compound 35, 3-((2S)-3-(8-(2-chlorophenylsulfonyl)-1-oxa-8-azaspiro[4.5]decan-3-ylamino)-2-hydroxypropoxy)-N-methylbenzenesulfonamide] showed a pIC50 of 7.72.
In the case of `CN1CCOc2ncc(S(=O)(=O)N3CCC4(CC3)C[C@@H](NC[C@H](O)COc3cccc(S(=O)(=O)N[C@H]5CCC[C@@H]5O)c3)CO4)cc21` [Compound 427, 3-((S)-2-hydroxy-3-((R)-8-(1-methyl-2,3-dihydro-1H-pyrido[2,3-b][1,4]oxazin-7-ylsulfonyl)-1-oxa-8-azaspiro[4.5]decan-3-ylamino)propoxy)-N-((1S,2S)-2-hydroxycyclopentyl)benzenesulfonamide], the pIC50 was 6.74.
`CNS(=O)(=O)c1cccc(OC[C@@H](O)CNC2COC3(CCN(S(=O)(=O)c4c(C)nn(-c5ccccc5)c4C)CC3)C2)c1` (stereo partly drawn) [Compound 261, 3-((2S)-3-(8-(3,5-dimethyl-1-phenyl-1H-pyrazol-4-ylsulfonyl)-1-oxa-8-azaspiro[4.5]decan-3-ylamino)-2-hydroxypropoxy)-N-methylbenzenesulfonamide] gave a pIC50 of 7.32.
With `CNS(=O)(=O)c1cccc(OC[C@@H](O)CN[C@H]2COC3(CCN(S(=O)(=O)c4cc5c(nc4N(C)C)OCCN5C)CC3)C2)c1` [Compound 453, 3-((S)-3-((R)-8-(6-(dimethylamino)-1-methyl-2,3-dihydro-1H-pyrido[2,3-b][1,4]oxazin-7-ylsulfonyl)-1-oxa-8-azaspiro[4.5]decan-3-ylamino)-2-hydroxypropoxy)-N-methylbenzenesulfonamide] the pIC50 was 6.94.
Compound `CNS(=O)(=O)c1cccc(OC[C@@H](O)CNC2COC3(CCN(S(=O)(=O)c4cc(C(F)(F)F)ccc4Cl)CC3)C2)c1` (stereo partly drawn) [Compound 133, 3-((2S)-3-(8-(2-chloro-5-(trifluoromethyl)phenylsulfonyl)-1-oxa-8-azaspiro[4.5]decan-3-ylamino)-2-hydroxypropoxy)-N-methylbenzenesulfonamide] has a pIC50 of 7.18.
`CCn1ccc(=O)c(S(=O)(=O)N2CCC3(CC2)C[C@@H](NC[C@H](O)COc2cccc(S(=O)(=O)NC)c2)CO3)c1` [Compound 588, 3-((S)-3-((R)-8-(1-ethyl-4-oxo-1,4-dihydropyridin-3-ylsulfonyl)-1-oxa-8-azaspiro[4.5]decan-3-ylamino)-2-hydroxypropoxy)-N-methylbenzenesulfonamide] gave a pIC50 of 5.71.
For `CNS(=O)(=O)c1cccc(OC[C@@H](O)CNC2COC3(CCN(S(=O)(=O)c4cccc5nsnc45)CC3)C2)c1` (stereo partly drawn) [Compound 128, 3-((2S)-3-(8-(benzo[c][1,2,5]thiadiazol-4-ylsulfonyl)-1-oxa-8-azaspiro[4.5]decan-3-ylamino)-2-hydroxypropoxy)-N-methylbenzenesulfonamide], the pIC50 was 7.94.
`CNS(=O)(=O)c1cccc(OC[C@@H](O)CNC2COC3(CCN(S(=O)(=O)c4cc(C)ccc4C)CC3)C2)c1` (stereo partly drawn) [Compound 154, 3-((2S)-3-(8-(2,5-dimethylphenylsulfonyl)-1-oxa-8-azaspiro[4.5]decan-3-ylamino)-2-hydroxypropoxy)-N-methylbenzenesulfonamide] showed a pIC50 of 7.46.
With `CNS(=O)(=O)c1cccc(OC[C@@H](O)CNC2COC3(CCN(S(=O)(=O)c4cccc(-c5ccccn5)c4)CC3)C2)c1` (stereo partly drawn) [Compound 102, 3-((2S)-2-hydroxy-3-(8-(3-(pyridin-2-yl)phenylsulfonyl)-1-oxa-8-azaspiro[4.5]decan-3-ylamino)propoxy)-N-methylbenzenesulfonamide] the pIC50 was 7.59.
Work on `CCOc1ccc(-c2ccc(CN)cc2)cc1S(=O)(=O)N1CCC2(CC1)C[C@@H](NC[C@H](O)COc1cccc(S(=O)(=O)NC)c1)CO2` [Compound 420, 3-((S)-3-((R)-8-(4′-(aminomethyl)-4-ethoxybiphenyl-3-ylsulfonyl)-1-oxa-8-azaspiro[4.5]decan-3-ylamino)-2-hydroxypropoxy)-N-methylbenzenesulfonamide] yielded a pIC50 of 7.99.
Work on `CC(C)(CO)NS(=O)(=O)c1cccc(OC[C@@H](O)CNC2COC3(CCN(S(=O)(=O)c4ccc5ccccc5c4)CC3)C2)c1` (stereo partly drawn) [Compound 49, N-(1-hydroxy-2-methylpropan-2-yl)-3-((2S)-2-hydroxy-3-(8-(naphthalen-2-ylsulfonyl)-1-oxa-8-azaspiro[4.5]decan-3-ylamino)propoxy)benzenesulfonamide] yielded a pIC50 of 6.97.
In the case of `CNS(=O)(=O)c1cccc(OC[C@@H](O)CN[C@H]2COC3(CCN(c4ncc(-c5ccccc5)cn4)CC3)C2)c1` [Compound 580, 3-((S)-2-hydroxy-3-((R)-8-(5-phenylpyrimidin-2-yl)-1-oxa-8-azaspiro[4.5]decan-3-ylamino)propoxy)-N-methylbenzenesulfonamide], the pIC50 was 6.58.
`CNS(=O)(=O)c1cccc(OC[C@@H](O)CNC2COC3(CCN(S(=O)(=O)c4cccc(-c5cncnc5)c4)CC3)C2)c1` (stereo partly drawn) [Compound 104, 3-((2S)-2-hydroxy-3-(8-(3-(pyrimidin-5-yl)phenylsulfonyl)-1-oxa-8-azaspiro[4.5]decan-3-ylamino)propoxy)-N-methylbenzenesulfonamide] showed a pIC50 of 7.76.
With `CNS(=O)(=O)c1cccc(OC[C@@H](O)CN[C@H]2COC3(CCN(S(=O)(=O)c4cnc5c(c4)CCC5)CC3)C2)c1` [Compound 491, 3-((S)-3-((R)-8-(6,7-dihydro-5H-cyclopenta[b]pyridin-3-ylsulfonyl)-1-oxa-8-azaspiro[4.5]decan-3-ylamino)-2-hydroxypropoxy)-N-methylbenzenesulfonamide] the pIC50 was 7.61.
In the case of `CNS(=O)(=O)c1cccc(OC[C@@H](O)CN[C@H]2COC3(CCN(S(=O)(=O)c4cc(C)ccc4F)CC3)C2)c1` [Compound 269, 3-((S)-3-((R)-8-(2-fluoro-5-methylphenylsulfonyl)-1-oxa-8-azaspiro[4.5]decan-3-ylamino)-2-hydroxypropoxy)-N-methylbenzenesulfonamide], the pIC50 was 7.61.
For `Cc1c(S(=O)(=O)N2CCC3(CC2)CC(NC[C@H](O)COc2cccc(S(=O)(=O)N(C)C)c2)CO3)cnn1-c1ccccc1` (stereo partly drawn) [Compound 252, 3-((2S)-2-hydroxy-3-(8-(5-methyl-1-phenyl-1H-pyrazol-4-ylsulfonyl)-1-oxa-8-azaspiro[4.5]decan-3-ylamino)propoxy)-N,N-dimethylbenzenesulfonamide], the pIC50 was 7.53.
